According to patent US9968541B2, “Optical treatment methods” (ON Light Sciences Inc., priority 2011, dated 2018):
Entries after “also recorded” stand apart in the source; their conditions may differ.

Tests used:
[1] = test system: cavitation-induced whitening immediately after laser treatment of tattoos; test: Pilot study: topical perfluorodecalin by cotton swab prior to each laser pass in tattoo removal; type: in vivo, patients
Method: Results of a pilot study related to the disclosure will be first released publicly in April 2012. The pilot study included tattoo removal with repeated laser exposures in one session, in which the need for 20-minute treatment intervals was eliminated. The pilot study was conducted at the Laser & Skin Surgery Center of New York (New York, N.Y.), under the direction of Roy G. Geronemus MD. […] A treatment delay of twenty minutes for resolution of whitening limited practicality of the technique, requiring up to eighty minutes of treatment time per visit. Medical grade, sterile perfluorodecalin, an inert, non-toxic liquid fluorocarbon with properties including optical clarity and gas-carrying capacity, was evaluated in the pilot study in an effort to speed resolution of cavitation-induced whitening immediately after laser treatment of tattoos. Perfluorodecalin may increase the optical penetration of lasers. The pilot study was performed in consenting patients with unwanted tattoos. Each tattoo was treated in whole or part with topical perfluorodecalin by cotton swab prior to each laser pass. Lasers and settings were selected by a dermatologist. During and after treatments, extent and duration of whitening reaction was assessed as well as appearance of adverse effects, including pigmentary change or scarring. […] In fifteen tattoos, perfluorodecalin was applied prior to each laser pass and the tattoo was treated with three Q-switched ruby laser passes immediately following one another in a single session. In five tattoos, a portion was treated with perfluorodecalin prior to a single pass of Q-switched ruby or Nd:YAG laser. […] After each laser pass, the whitening reaction resolved within five seconds of perfluorodecalin application. All treatments were well-tolerated with local anesthesia.

[2] = cited from earlier work
[3] = as described by Tsai; cited from earlier work

With `FC1(F)C(F)(F)C(F)(F)C2(F)C(F)(F)C(F)(F)C(F)(F)C(F)(F)C2(F)C1(F)F` (stereo not drawn) [perfluorodecalin] the “time for whitening reaction to resolve after perfluorodecalin application” value ([1]; after each laser pass, Q-switched ruby or Nd:YAG laser, topical by cotton swab, patients' tattoos) was “five”, the “adverse effects (including pigmentary change or scarring)” value ([1]; follow-up at 3-6 weeks) was “no adverse effects occurred” and the “healing (amount of blistering, crusting or other changes) compared with previous treatments” value ([1]; subject-reported) was “normal to improved healing”. For the same compound, the “resolution of post-laser whitening” value ([1]; topical application with cotton swab, laser therapy of tattoos) was “effectively resolve whitening in laser therapy within seconds; also recorded: resolves post-laser whitening within seconds”, the “treatment time for multiple passes in a single session” value ([1]; up to four passes in a single session, compared to about 80 minutes with R20) was “about 5 minutes” and the tolerability of treatments ([1]; with local anesthesia, perfluorodecalin prior to each laser pass) was “well-tolerated”. For the same compound, the solubility in water ([2]; as described by Tsai) was “very low solubility in water”, the “thermal stability (stable up to)” value ([2]; generally regarded) was “about 400 °C” and the toxicity [3] was “non-toxic”.
